Results as given in patent publication US8999404B2, “Phaleria macrocarpa extract, extraction process and its use as cholesteryl ester transferase protein (CETP) inhibitor” (Pt. Dexa Medica, priority 2011, dated 2015).
Entries after “also recorded” stand apart in the source; their conditions may differ.

How the values were obtained:
[1] = tested on: CETP gene expression; assay: Combination effect of double unsaturated fatty acid and DLBS1449 on CETP gene expression; assay type: cell-based, human; settings: HepG2, 30 μM fatty acid alone, 24 hours, FIG. 8
Procedure: HepG2 cells were cultured at 6-well plate until 60% of cell density was reached. Change of medium was then performed, using serum-free medium and incubated for 24 hours. Those cells were then treated with 4 different treatments which were 30 μM of arachidonic acid, 30 μM of linoleic acid, combination of arachidonic acid with 75 μg/ml of DLBS1449 and combination of linoleic acid with 75 μg/ml of DLBS1449. These treatments were performed for 24 hours. Total RNA of HepG2 cells treated with DLBS1449 were isolated using Trizol solution according to the procedure available from the solution. Total RNA were then measured using NanoDrop machine and visualized using electrophoresis method. Further, RNA with good quality will be used to synthesize cDNA through RT-PCR process using PCR Thermocycler machine in a certain condition that has been optimized.

[2] = clinical trials, patients consuming the drug; cited from earlier work

| Structure (SMILES) | CETP gene expression [1] | patients' blood pressure [2] |
| --- | --- | --- |
| CCCCC/C=C\C/C=C\C/C=C\C/C=C\CCCC(=O)O [arachidonic acid] | decrease the CETP gene expression | – |
| CCCCC/C=C\C/C=C\CCCCCCCC(=O)O [linoleic acid] | greater decrease | – |
| CCOC(=O)N1c2ccc(C(F)(F)F)cc2[C@@H](N(Cc2cc(C(F)(F)F)cc(C(F)(F)F)c2)C(=O)OC)C[C@H]1CC [torcetrapib] | – | increase of blood pressure; also recorded: increase in patients' blood pressure |
